Data: patent publication US9730445B2, “Herbicidal compositions comprising 4-amino-3-chloro-5-fluoro-6-(4-chloro-2-fluoro-3-methoxyphenyl) pyridine-2-carboxylic acid or a derivative thereof and fungicides” (DOW AGROSCIENCES LLC, priority 2013, dated 2017)

Key:
Test in all cases: Postemergence foliar-applied weed control, direct-seeded rice (greenhouse)
IPOHE = type: in vivo, Ipomoea hederacea (L.) Jacq. (ivyleaf morningglory)
Description: (§1) Seeds or nutlets of the desired test plant species were planted in a soil matrix prepared by mixing aloam or sandy loam soil (e.g., 28.6 percent silt, 18.8 percent clay, and 52.6 percent sand, with a pH of about 5.8 and an organic matter content of about 1.8 percent) and calcareous grit in an 80 to 20 ratio. The soil matrix was contained in plastic pots with a volume of 1 quart and a surface area of 83.6 square centimeters (cm^2). […] The plants were grown for 8-22 days in a greenhouse with an approximate 14 hour (h) photoperiod which was maintained at about 29° C. during the day and 26° C. during the night. Nutrients (Peters Excel® 15-5-15 5-Ca 2-Mg and iron chelate) were applied in the irrigation solution as needed and water was added on a regular basis. Supplemental lighting was provided with overhead metal halide 1000-Watt lamps as necessary. The plants were employed for testing when they reached the first through fourth true leaf stage.
(§2) Treatments consisted of the acid or esters of 4-amino-3-chloro-5-fluoro-6-(4-chloro-2-fluoro-3-methoxy-phenyl)pyridine-2-carboxylic acid (Compound A), each formulated as an SC (suspension concentrate), and various fungicidal components alone and in combination. Forms of compound A were applied on an acid equivalent basis.
(§3) For treatments comprised of formulated compounds, measured amounts of compounds were placed individually in 25 mL glass vials and diluted in a volume of 1.25% volume per volume (v/v) Agri-Dex® crop oil concentrate to obtain 12× stock solutions. […] Application solutions were prepared by adding an appropriate amount of each stock solution (e.g., 1 mL) and diluted to the appropriate final concentrations with the addition of […] of an aqueous mixture of 1.25% (v/v) crop oil concentrate so that the final spray solutions contained 1.25+/−0.05% (v/v) crop oil concentrate.
(§4) For treatments comprised of technical compounds, weighed amounts can be placed individually in 25 mL glass vials and dissolved in a volume of 97:3 volume per volume (v/v) acetone/dimethyl sulfoxide (DMSO) to obtain 12× stock solutions. […] When technical materials are used, the concentrated stock solutions can be added to the spray solutions so that the final acetone and DMSO concentrations of the application solutions are 16.2% and 0.5%, respectively.
(§5) As required, additional water and/or 97:3 v/v acetone/DMSO was added to individual application solutions so that the final acetone and DMSO concentrations of the application solutions being compared were 8.1% and 0.25%, respectively
(§6) All stock solutions and applications solutions were visually inspected for compound compatibility prior to application. Spray solutions were applied to the plant material with an overhead Mandel track sprayer equipped with 8002E nozzles calibrated to deliver 187 L/ha over an application area of 0.503 square meters (m^2) at a spray height of 18 to 20 inches (46 to 50 cm) above average plant canopy height. Control plants were sprayed in the same manner with the solvent blank.
(§7) The treated plants and control plants were placed in a greenhouse as described above and watered by sub-irrigation to prevent wash-off of the test compounds. After approximately 3 weeks, the condition of the test plants as compared with that of the untreated plants was determined visually and scored on a scale of 0 to 100 percent where 0 corresponds to no injury or growth inhibition and 100 corresponds to complete kill.
(§8) Colby's equation was used to determine the herbicidal effects expected from the mixtures (Colby, S. R. Calculation of the synergistic and antagonistic response of herbicide combinations. Weeds 1967, 15, 20-22.).
(§9) The following equation was used to calculate the expected activity of mixtures containing two active ingredients, A and B: Expected=A+B−(A×B/100)

ECHOR = type: in vivo, Echinochloa oryzoides (Ard.) Fritsch (early watergrass)
Description: as §1, §2
For treatments comprised of formulated compounds, measured amounts of compounds were placed individually in 25 mL glass vials and diluted in a volume of 1.25% volume per volume (v/v) Agri-Dex® crop oil concentrate to obtain 12× stock solutions. […]
as §7, with “kill. […]” for “kill.”

LEFCH = type: in vivo, Leptochloa chinensis (L.) Nees (Chinese sprangletop); details: 21 DAA
Description: as §1, §2, §3, §4, §5, §6, §7, §8, §9

ECHCG = type: in vivo, Echinochloa crus-galli (L.) P. Beauv. (barnyardgrass)
Description: as §1, §2, §3, §4, §5, §6, §7, §8, §9

DIGSA = type: in vivo, Digitaria sanguinalis (L.) Scop. (large crabgrass)
Text: Seeds or nutlets of the desired test plant species were planted in a soil matrix prepared by mixing aloam or sandy loam soil (e.g., 28.6 percent silt, 18.8 percent clay, and 52.6 percent sand, with a pH of about 5.8 and an organic matter content of about 1.8 percent) and calcareous grit in an 80 to 20 ratio. The soil matrix was contained in plastic pots with a volume of 1 quart and a surface area of 83.6 square centimeters (cm^2). When required to ensure good germination and healthy plants, a fungicide treatment and/or other chemical or physical treatment was applied. The plants were grown for 8-22 days in a greenhouse with an approximate 14 hour (h) photoperiod which was maintained at about 29° C. during the day and 26° C. during the night. Nutrients (Peters Excel® 15-5-15 5-Ca 2-Mg and iron chelate) were applied in the irrigation solution as needed and water was added on a regular basis. Supplemental lighting was provided with overhead metal halide 1000-Watt lamps as necessary. The plants were employed for testing when they reached the first through fourth true leaf stage.
as §2
Treatment requirements were calculated based upon the rates being tested, the concentration of active ingredient or acid equivalent in the formulation and a 12 milliliter (mL) application volume at a rate of 187 liters per hectare (L/ha).
as §3, §4, §5, §6
as §7, with “kill. […]” for “kill.”

CYPIR = type: in vivo, Cyperus iria L. (rice flatsedge); details: 21 DAA, r29-30 ester 8/16 g ae/ha alone, r31-33 kasugamycin 17.5/35/70 g ai/ha alone, r34-39 ester 8/16 at each of 17.5, 35, 70
Description: as §1, §2, §3, §4, §5, §6, §7, §8, §9

CYPES = type: in vivo, Cyperus esculentus L. (yellow nutsedge); details: r45 ester 8 g ae/ha alone, r46-48 kasugamycin 17.5/35/70 g ai/ha alone, r49-51 ester 8 + 17.5/35/70
Description: as §1, §2, §3, §4, §5, §6
as §7, with “kill. […]” for “kill.”

[1] = r10-12 ester 4.38/8.75/17.5 g ae/ha alone, r13 difenoconazole 200 g ai/ha alone, r14-16 ester 4.38/8.75/17.5 + 200
[2] = r9-11 acid 5.3/10.6/21.2 g ae/ha alone, r12 difenoconazole 200 g ai/ha alone, r13-15 acid 5.3/10.6/21.2 + 200
[3] = r9-11 ester 8/16/32 g ae/ha alone, r12-14 kasugamycin 17.5/35/70 g ai/ha alone, r15-23 ester 8/16/32 at each of 17.5, 35, 70

CC1COC(Cn2cncn2)(c2ccc(Oc3ccc(Cl)cc3)cc2Cl)O1 (mixture of isomers) [Difenoconazole, cis, trans-3-chloro-4-[4-methyl-2-(1H-1,2,4-triazol-1-ylmethyl)-1,3,dioxolan-2-yl]phenyl 4-chlorophenyl ether, reference compound]
0%: Visual Weed Control (%) - 21 DAA IPOHE Obs (IPOHE; [1]) | Visual Weed Control (%) - 21 DAA ECHOR Obs (ECHOR; r78-80 ester 8/16/32 g ae/ha alone, r81-83 difenoconazole 50/100/200 g ai/ha alone, r84-92 ester 8/16/32 at each of 50, 100, 200) | Visual Weed Control (%)—21 DAA LEFCH Obs (LEFCH; [2]) | Visual Weed Control (%) - 21 DAA LEFCH Obs (LEFCH; [1]) | Visual Weed Control (%) - 21 DAA LEFCH Obs (LEFCH; r42-43 ester 16/32 g ae/ha alone, r44-46 difenoconazole 50/100/200 g ai/ha alone, r47-52 ester 16/32 at each of 50, 100, 200) | Visual Weed Control (%)—21 DAA ECHCG Obs (ECHCG; [2]) | Visual Weed Control (%) - 21 DAA ECHCG Obs (ECHCG; r58-60 ester 8/16/32 g ae/ha alone, r61-63 difenoconazole 50/100/200 g ai/ha alone, r64-72 ester 8/16/32 at each of 50, 100, 200) | Visual Weed Control (%)—21 DAA DIGSA Obs (DIGSA; [2]) | Visual Weed Control (%) - 22 DAA DIGSA Obs (DIGSA; 22 DAA, r22-24 ester 8/16/32 g ae/ha alone, r25-27 difenoconazole 50/100/200 g ai/ha alone, r28-36 ester 8/16/32 at each of 50, 100, 200)

CC1OC(OC2C(O)C(O)C(O)C(O)C2O)C(N)CC1NC(=N)C(=O)O.Cl [Kasugamycin, 1L-1,3,4/2,5,6-1-deoxy-2,3,4,5,6,-pentahydroxycyclohexyl 2-amino-2,3,4,6-tetradeoxy-4-(α-iminoglycino)-α-D-arabino-hexopyranoside hydrochloride hydrate, reference compound]
0%: Visual Weed Control (%)—21 DAA IPOHE Obs (IPOHE; [3]) | Visual Weed Control (%)—21 DAA CYPIR Obs (CYPIR) | Visual Weed Control (%)—21 DAA ECHOR Obs (ECHOR; [3]) | Visual Weed Control (%)—21 DAA LEFCH Obs (LEFCH; [3]) | Visual Weed Control (%)—21 DAA DIGSA Obs (DIGSA; [3]) | Visual Weed Control (%)—21 DAA CYPES Obs (CYPES)
